Experiment: log P by HPLC
Assay type: physicochemical
Details: HPLC, gradient method, acetonitrile/0.1% aqueous phosphoric acid; EEC directive 79/831 Annex V. A8

Compound | logP
OC1CCCN(c2c(-c3ccc(F)cc3F)c(Cl)nc3nc(C4CC4)nn23)C1 (centres unmarked) [compound 614] | 2.57
CC1(C)CCN(c2c(-c3ccc(F)cc3F)c(Cl)nc3nc(C4CC4)nn23)CC1 [compound 615] | 4.67
COCCNc1c(-c2ccc(F)cc2Cl)c(Cl)nc2nc(C3CC3)nn12 [compound 616] | 3.07
CC1CCCCN1c1c(-c2ccc(F)cc2Cl)c(Cl)nc2nc(C3CC3)nn12 (centres unmarked) [compound 617] | 4.72
CC1CCN(c2c(-c3ccc(F)cc3Cl)c(Cl)nc3nc(C4CC4)nn23)CC1 [compound 618] | 4.82
CN(C)Nc1c(-c2ccc(F)cc2Cl)c(Cl)nc2nc(C3CC3)nn12 [compound 619] | 3.29
CC(NNc1c(-c2ccc(F)cc2Cl)c(Cl)nc2nc(C3CC3)nn12)C1CC1 (centres unmarked) [compound 620] | 3.81
CC(C)CNc1c(-c2ccc(F)cc2Cl)c(Cl)nc2nc(C3CC3)nn12 [compound 621] | 3.9
CC(C)(C)CNc1c(-c2ccc(F)cc2Cl)c(Cl)nc2nc(C3CC3)nn12 [compound 622] | 4.37
CCC(C)Nc1c(-c2ccc(F)cc2Cl)c(Cl)nc2nc(C3CC3)nn12 (centres unmarked) [compound 623] | 3.9
Fc1ccc(-c2c(Cl)nc3nc(C4CC4)nn3c2NC2CCCC2)c(Cl)c1 [compound 624] | 4.13
Fc1ccc(-c2c(Cl)nc3nc(C4CC4)nn3c2NCC2CC2)c(Cl)c1 [compound 625] | 3.63
C=C(C)CNc1c(-c2ccc(F)cc2Cl)c(Cl)nc2nc(C3CC3)nn12 [compound 626] | 3.59
CC(C)CN(C)c1c(-c2ccc(F)cc2Cl)c(Cl)nc2nc(C3CC3)nn12 [compound 627] | 4.51
COCCN(C)c1c(-c2ccc(F)cc2Cl)c(Cl)nc2nc(C3CC3)nn12 [compound 628] | 3.46
C=C(C)CN(C)c1c(-c2ccc(F)cc2Cl)c(Cl)nc2nc(C3CC3)nn12 [compound 629] | 4.41
C=C(C)CN(CC)c1c(-c2ccc(F)cc2Cl)c(Cl)nc2nc(C3CC3)nn12 [compound 630] | 4.77
CCN(CCOC)c1c(-c2ccc(F)cc2Cl)c(Cl)nc2nc(C3CC3)nn12 [compound 631] | 3.81
CCN(CC)c1c(-c2ccc(F)cc2Cl)c(Cl)nc2nc(C3CC3)nn12 [compound 632] | 4.13
Fc1ccc(-c2c(Cl)nc3nc(C4CC4)nn3c2N2CCCC2)c(Cl)c1 [compound 634] | 3.72
Fc1ccc(-c2c(Cl)nc3nc(C4CC4)nn3c2N2CCCCC2)c(Cl)c1 [compound 635] | 4.37

Compound | logP
Fc1ccc(-c2c(Cl)nc3nc(C4CC4)nn3c2N2CCOCC2)c(Cl)c1 [compound 636] | 3.18
CC(C)CC(C)Nc1c(-c2ccc(F)cc2Cl)c(Cl)nc2nc(C3CC3)nn12 (centres unmarked) [compound 637] | 4.61
Fc1ccc(-c2c(Cl)nc3nc(C4CC4)nn3c2NCC(F)(F)F)c(Cl)c1 [compound 638] | 3.37
Fc1ccc(-c2c(Cl)nc3nc(C4CC4)nn3c2N2CCCC2C(F)(F)F)c(Cl)c1 (centres unmarked) [compound 639] | 4.23
C=C(C)CN(CC)c1c(-c2ccc(F)cc2Cl)c(Cl)nc2nc(C)nn12 [compound 643] | 4.06
CC(C)CNc1c(-c2ccc(F)cc2F)c(Cl)nc2nc(C3CC3)nn12 [compound 644] | 3.38
CCCCNc1c(-c2ccc(F)cc2F)c(Cl)nc2nc(C3CC3)nn12 [compound 645] | 3.6
CC(C)(C)CNc1c(-c2ccc(F)cc2F)c(Cl)nc2nc(C3CC3)nn12 [compound 646] | 4
CCC(C)Nc1c(-c2ccc(F)cc2F)c(Cl)nc2nc(C3CC3)nn12 (centres unmarked) [compound 647] | 3.57
Fc1ccc(-c2c(Cl)nc3nc(C4CC4)nn3c2NCCC(F)(F)F)c(F)c1 [compound 648] | 3.25
CCCNc1c(-c2ccc(F)cc2F)c(Cl)nc2nc(C3CC3)nn12 [compound 649] | 3.2
Fc1ccc(-c2c(Cl)nc3nc(C4CC4)nn3c2NC2CCCC2)c(F)c1 [compound 650] | 3.76
CC(C)Nc1c(-c2ccc(F)cc2F)c(Cl)nc2nc(C3CC3)nn12 [compound 651] | 3.2
Fc1ccc(-c2c(Cl)nc3nc(C4CC4)nn3c2NC2CCCCC2)c(F)c1 [compound 652] | 4.02
CC(Nc1c(-c2ccc(F)cc2F)c(Cl)nc2nc(C3CC3)nn12)C1CCCCC1 (centres unmarked) [compound 653] | 4.84
COCCNc1c(-c2ccc(F)cc2F)c(Cl)nc2nc(C3CC3)nn12 [compound 654] | 2.75
Fc1ccc(-c2c(Cl)nc3nc(C4CC4)nn3c2NC2CC2)c(F)c1 [compound 655] | 2.95
Fc1ccc(-c2c(Cl)nc3nc(C4CC4)nn3c2NCC2CC2)c(F)c1 [compound 656] | 3.26
C=C(C)CNc1c(-c2ccc(F)cc2F)c(Cl)nc2nc(C3CC3)nn12 [compound 657] | 3.22
Fc1ccc(-c2c(Cl)nc3nc(C4CC4)nn3c2NC2CCCC(C(F)(F)F)C2)c(F)c1 (centres unmarked) [compound 658] | 3.98
Fc1ccc(-c2c(Cl)nc3nc(C4CC4)nn3c2NC2CCC(C(F)(F)F)CC2)c(F)c1 (centres unmarked) [compound 659] | 3.93

Compound | logP
CC(C)CC(C)Nc1c(-c2ccc(F)cc2F)c(Cl)nc2nc(C3CC3)nn12 (centres unmarked) [compound 660] | 4.24
CN(C)CCN(C)c1c(-c2ccc(F)cc2F)c(Cl)nc2nc(C3CC3)nn12 [compound 661] | 1.56
C#CCN(C)c1c(-c2ccc(F)cc2F)c(Cl)nc2nc(C3CC3)nn12 [compound 662] | 3.21
CN(CC1OCCO1)c1c(-c2ccc(F)cc2F)c(Cl)nc2nc(C3CC3)nn12 [compound 663] | 3.1
C=CCN(C)c1c(-c2ccc(F)cc2F)c(Cl)nc2nc(C3CC3)nn12 [compound 664] | 3.61
CN(C)CCCN(C)c1c(-c2ccc(F)cc2F)c(Cl)nc2nc(C3CC3)nn12 [compound 665] | 1.61
COC(CN(C)c1c(-c2ccc(F)cc2F)c(Cl)nc2nc(C3CC3)nn12)OC [compound 666] | 3.24
CN(Cc1ccco1)c1c(-c2ccc(F)cc2F)c(Cl)nc2nc(C3CC3)nn12 [compound 667] | 3.63
CC(C)CN(C)c1c(-c2ccc(F)cc2F)c(Cl)nc2nc(C3CC3)nn12 [compound 668] | 4.07
COCCN(C)c1c(-c2ccc(F)cc2F)c(Cl)nc2nc(C3CC3)nn12 [compound 669] | 3.16
C=C(C)CN(C)c1c(-c2ccc(F)cc2F)c(Cl)nc2nc(C3CC3)nn12 [compound 670] | 4.05
CCCCN(C)c1c(-c2ccc(F)cc2F)c(Cl)nc2nc(C3CC3)nn12 [compound 671] | 4.21
Fc1cc(F)c(-c2c(Cl)nc3nc(C4CC4)nn3c2NCC(F)(F)F)c(F)c1 [compound 672] | 3.25
CC1CCCCN1c1c(-c2c(F)cc(F)cc2F)c(Cl)nc2nc(C3CC3)nn12 (centres unmarked) [compound 674] | 4.6
Fc1cc(F)c(-c2c(Cl)nc3nc(C4CC4)nn3c2N2CCC(F)CC2)c(F)c1 [compound 675] | 3.68
CC(C)CN(C)c1c(-c2c(F)cccc2F)c(Cl)nc2nc(C3CC3)nn12 [compound 676] | 4.08
C=C(C)CN(C)c1c(-c2c(F)cccc2F)c(Cl)nc2nc(C3CC3)nn12 [compound 677] | 3.98
CC1CCCN1c1c(-c2c(F)cccc2F)c(Cl)nc2nc(C3CC3)nn12 (centres unmarked) [compound 678] | 3.68
Fc1cccc(F)c1-c1c(Cl)nc2nc(C3CC3)nn2c1N1CCCC1 [compound 679] | 3.25
CC1CCCCN1c1c(-c2c(F)cccc2F)c(Cl)nc2nc(C3CC3)nn12 (centres unmarked) [compound 680] | 3.17
CC1CCN(c2c(-c3c(F)cccc3F)c(Cl)nc3nc(C4CC4)nn23)CC1 [compound 681] | 4.34

Compound | logP
Fc1cccc(F)c1-c1c(Cl)nc2nc(C3CC3)nn2c1N1CCCCC1 [compound 682] | 3.9
Fc1cccc(F)c1-c1c(Cl)nc2nc(C3CC3)nn2c1N1CCOCC1 [compound 683] | 2.78
Cc1nc2nc(Cl)c(-c3c(F)cccc3F)c(NC(C)C(C)C)n2n1 (centres unmarked) [compound 684] | 3.18
Cc1nc2nc(Cl)c(-c3c(F)cccc3F)c(NC(C)C(C)(C)C)n2n1 (centres unmarked) [compound 685] | 3.56
Cc1nc2nc(Cl)c(-c3c(F)cc(F)cc3F)c(N3OCCCC3C)n2n1 (centres unmarked) [compound 686] | 3.42
CCNc1c(-c2ccc(F)cc2F)c(Cl)nc2nc(C)nn12 [compound 687] | 3.08
Cc1nc2nc(Cl)c(-c3c(F)cccc3Cl)c(NC(C)C(C)C)n2n1 (centres unmarked) [compound 688] | 3.43
Fc1ccc(-c2c(Cl)nc3nc(C4CC4)nn3c2N2CCCCO2)c(F)c1 [compound 690] | 3.56
Cc1nc2nc(Cl)c(-c3ccc(F)cc3Cl)c(N3CCCCN3)n2n1 [compound 691] | 2.94
Cc1nc2nc(Cl)c(-c3c(F)cc(F)cc3F)c(N3CCCCN3)n2n1 [compound 692] | 2.83
Cc1nc2nc(Cl)c(-c3ccc(F)cc3F)c(N3OCCC3C)n2n1 (centres unmarked) [compound 695] | 2.79
Cc1nc2nc(Cl)c(-c3ccccc3Cl)c(NC(C)C(C)C)n2n1 (centres unmarked) [compound 696] | 3.46
Cc1nc2nc(Cl)c(-c3ccc(F)cc3Cl)c(NCC(F)F)n2n1 [compound 697] | 2.54
CC(C)CN(C)c1c(-c2c(F)cccc2Cl)c(Cl)nc2nc(C3CC3)nn12 [compound 698] | 4.32
COCCN(C)c1c(-c2c(F)cccc2Cl)c(Cl)nc2nc(C3CC3)nn12 [compound 699] | 3.3
C=C(C)CN(C)c1c(-c2c(F)cccc2Cl)c(Cl)nc2nc(C3CC3)nn12 [compound 700] | 4.21
CCN(CCOC)c1c(-c2c(F)cccc2Cl)c(Cl)nc2nc(C3CC3)nn12 [compound 701] | 3.66
CC1CCCN1c1c(-c2c(F)cccc2Cl)c(Cl)nc2nc(C3CC3)nn12 (centres unmarked) [compound 702] | 3.94
Fc1cccc(Cl)c1-c1c(Cl)nc2nc(C3CC3)nn2c1N1CCCC1C(F)(F)F (centres unmarked) [compound 703] | 4.1
Fc1cccc(Cl)c1-c1c(Cl)nc2nc(C3CC3)nn2c1N1CCCC1 [compound 704] | 3.55

From patent US7186831B2, “5-halo-2-alkyl[1,2,4]triazolo[1,5-a]pyrimidin-7-amines” (priority 2001, dated 2007)
